Measurements taken from publication PMC7179202 (Molecules, 2020).

Assays:
[1] = tested on: RUMH (c-MET-overexpressing renal cell carcinoma); test: MTT cytotoxicity assay, RUMH; conditions: for IC50: Homo sapiens, read-out: IC50 RUMH; for Ratio of IC50 ±H2O2, RUMH: IC50 without / with H2O2 pre-incubation
Procedure: (§1) In addition, to assess the amount of prodrug activation in these models, the cytotoxicity of the activated drugs after (cell-free) pre-incubation with H2O2 was tested for comparison.
(§2) All samples were dissolved in DMSO and diluted to the indicated concentrations (final concentrations of DMSO were below 1%). […] Viability was measured using 3-(4,5-dimethylthiazol-2-yl)-2,5-diphenyltetrazolium bromide (MTT) based vitality assay (EZ4U; Biomedica, Vienna, Austria) following the manufacturer’s recommendations.

[2] = tested on: non-malignant human lung fibroblasts (HLF); test: MTT cytotoxicity assay, HLF; conditions: Fibroblast, read-out: IC50 HLF
Procedure: as §1, §2

[3] = tested on: H2228 (ALK-dependent non-small cell lung cancer); test: MTT cytotoxicity assay, H2228; conditions: for IC50: Homo sapiens, NCI-H2228, read-out: IC50 H2228; for Ratio of IC50 ±H2O2, H2228: IC50 without / with H2O2 pre-incubation
Procedure: as §1, §2

[4] = tested on: H1993 (c-MET-dependent non-small cell lung cancer); test: MTT cytotoxicity assay, H1993; conditions: for IC50: Homo sapiens, NCI-H1993, read-out: IC50 H1993; for Ratio of IC50 ±H2O2, H1993: IC50 without / with H2O2 pre-incubation
Procedure: as §1, §2

[5] = molecular target: c-MET (Homo sapiens, UniProt P08581); test: Cell-free kinase inhibition assay (SelectScreen, Z'-LYTE), c-MET; conditions: for Prodrug factor c-MET = IC50 (prodrug)/IC50 (crizotinib): cell-free kinase assay
From the text: (§3) The test compounds were screened in a final concentration of 1% DMSO using the Z′-LYTE® Assay.

[6] = molecular target: ALK (Homo sapiens, UniProt Q9UM73); test: Cell-free kinase inhibition assay (SelectScreen, Z'-LYTE), ALK; conditions: for Prodrug factor ALK = IC50 (prodrug)/IC50 (crizotinib): cell-free kinase assay
From the text: as §3

[7] = H2O2 activation assay (HPLC); conditions: for Release of free crizotinib / Product of activation with H2O2: ten equivalents H2O2, phosphate buffer 50 mM pH 7.4, 37 °C; for Product of activation with H2O2: 1 h, HPLC-MS
Procedure: Therefore, the activation process was verified by incubation with ten equivalents of H2O2 in phosphate buffer (50 mM, pH 7.4) at 37 °C. […] In a complex biological environment, this quinone methide usually reacts with other nucleophiles; consequently, this side reaction can be neglected.
Additionally, a H2O2 solution (1 mM) in PB7.4 was prepared. The activation was started by addition of 5 µL of drug solution and 25 µL of H2O2 to 70 µL of PB7.4 and incubated at 37 °C for 1 h. At time point 0 and every 8 min, the sample were measured via HPLC. All measurements were performed on a ThermoFisher Ultimate 3000RS system using a Water’s Acquity BEH C18 column (3 × 50 mm, 1.7 µm) and a 5%–95% gradient of acetonitrile (+0.1% TFA) in water (+0.1% TFA). […] The results are visualized in Figure S6 for prodrug A and in Figure S7 for prodrug B.

[8] = Stability in R10 medium and fetal calf serum (HPLC-MS); conditions: R10 medium and pure FCS, 37 °C, after 72 h
Procedure: After precipitation of the macromolecules with acetonitrile, the supernatant was investigated via HPLC-MS measurements (Figure 4).
The 10 mM stock solutions of the drugs were prepared in DMSO and diluted 1:10 with PB7.4. […] At different time points, macromolecules were precipitated by addition of 40 µL of acetonitrile, vortexed and centrifuged for 10 min at 6000 rpm. The supernatant was extracted and investigated via HPLC-MS measurements.

[9] = design: method as in PMID 28256516; conditions: approved orally applied drug, SwissADME prediction; cited from earlier work

ALK, sequence (Q9UM73 19-1620): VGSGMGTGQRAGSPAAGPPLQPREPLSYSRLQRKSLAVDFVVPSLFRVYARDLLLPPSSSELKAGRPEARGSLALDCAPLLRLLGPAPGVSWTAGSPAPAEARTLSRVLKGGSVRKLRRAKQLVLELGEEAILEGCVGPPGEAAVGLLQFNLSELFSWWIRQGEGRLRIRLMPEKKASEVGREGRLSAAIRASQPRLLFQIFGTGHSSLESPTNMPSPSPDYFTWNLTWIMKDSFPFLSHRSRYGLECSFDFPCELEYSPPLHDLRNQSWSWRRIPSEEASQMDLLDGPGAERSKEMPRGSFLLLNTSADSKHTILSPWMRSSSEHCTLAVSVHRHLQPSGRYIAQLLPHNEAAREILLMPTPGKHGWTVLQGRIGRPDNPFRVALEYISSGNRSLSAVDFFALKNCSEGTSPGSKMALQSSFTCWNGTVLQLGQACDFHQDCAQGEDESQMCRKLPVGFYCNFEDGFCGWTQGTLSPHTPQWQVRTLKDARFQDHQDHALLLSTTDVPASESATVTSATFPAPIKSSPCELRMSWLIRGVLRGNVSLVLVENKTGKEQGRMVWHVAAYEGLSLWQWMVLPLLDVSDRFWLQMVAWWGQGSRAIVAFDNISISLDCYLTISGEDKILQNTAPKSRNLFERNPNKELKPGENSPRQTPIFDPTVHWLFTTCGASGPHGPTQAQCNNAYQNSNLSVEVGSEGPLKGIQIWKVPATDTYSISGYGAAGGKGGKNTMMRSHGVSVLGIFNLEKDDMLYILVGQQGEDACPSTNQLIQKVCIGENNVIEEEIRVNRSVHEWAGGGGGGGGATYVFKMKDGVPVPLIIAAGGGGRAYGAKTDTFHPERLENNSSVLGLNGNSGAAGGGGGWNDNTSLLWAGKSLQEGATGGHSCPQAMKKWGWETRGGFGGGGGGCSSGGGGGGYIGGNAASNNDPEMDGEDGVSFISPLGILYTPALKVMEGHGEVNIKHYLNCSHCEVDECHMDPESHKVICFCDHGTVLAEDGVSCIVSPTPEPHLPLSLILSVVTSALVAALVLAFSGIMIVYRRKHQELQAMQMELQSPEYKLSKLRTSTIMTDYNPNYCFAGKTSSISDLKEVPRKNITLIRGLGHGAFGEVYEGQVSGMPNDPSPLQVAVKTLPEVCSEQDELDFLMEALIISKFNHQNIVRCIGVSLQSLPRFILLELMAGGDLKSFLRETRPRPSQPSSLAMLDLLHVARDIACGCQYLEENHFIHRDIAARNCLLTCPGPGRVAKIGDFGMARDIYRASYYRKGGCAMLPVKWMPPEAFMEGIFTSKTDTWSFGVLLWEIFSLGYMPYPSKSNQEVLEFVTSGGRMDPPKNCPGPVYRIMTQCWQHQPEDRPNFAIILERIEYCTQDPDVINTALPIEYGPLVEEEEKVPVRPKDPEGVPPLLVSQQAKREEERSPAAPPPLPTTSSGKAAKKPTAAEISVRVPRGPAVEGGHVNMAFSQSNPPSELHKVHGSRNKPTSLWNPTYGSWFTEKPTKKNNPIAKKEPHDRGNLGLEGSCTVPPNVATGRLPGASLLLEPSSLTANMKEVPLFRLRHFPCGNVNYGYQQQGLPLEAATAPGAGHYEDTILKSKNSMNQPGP
c-MET, sequence (P08581 25-1390): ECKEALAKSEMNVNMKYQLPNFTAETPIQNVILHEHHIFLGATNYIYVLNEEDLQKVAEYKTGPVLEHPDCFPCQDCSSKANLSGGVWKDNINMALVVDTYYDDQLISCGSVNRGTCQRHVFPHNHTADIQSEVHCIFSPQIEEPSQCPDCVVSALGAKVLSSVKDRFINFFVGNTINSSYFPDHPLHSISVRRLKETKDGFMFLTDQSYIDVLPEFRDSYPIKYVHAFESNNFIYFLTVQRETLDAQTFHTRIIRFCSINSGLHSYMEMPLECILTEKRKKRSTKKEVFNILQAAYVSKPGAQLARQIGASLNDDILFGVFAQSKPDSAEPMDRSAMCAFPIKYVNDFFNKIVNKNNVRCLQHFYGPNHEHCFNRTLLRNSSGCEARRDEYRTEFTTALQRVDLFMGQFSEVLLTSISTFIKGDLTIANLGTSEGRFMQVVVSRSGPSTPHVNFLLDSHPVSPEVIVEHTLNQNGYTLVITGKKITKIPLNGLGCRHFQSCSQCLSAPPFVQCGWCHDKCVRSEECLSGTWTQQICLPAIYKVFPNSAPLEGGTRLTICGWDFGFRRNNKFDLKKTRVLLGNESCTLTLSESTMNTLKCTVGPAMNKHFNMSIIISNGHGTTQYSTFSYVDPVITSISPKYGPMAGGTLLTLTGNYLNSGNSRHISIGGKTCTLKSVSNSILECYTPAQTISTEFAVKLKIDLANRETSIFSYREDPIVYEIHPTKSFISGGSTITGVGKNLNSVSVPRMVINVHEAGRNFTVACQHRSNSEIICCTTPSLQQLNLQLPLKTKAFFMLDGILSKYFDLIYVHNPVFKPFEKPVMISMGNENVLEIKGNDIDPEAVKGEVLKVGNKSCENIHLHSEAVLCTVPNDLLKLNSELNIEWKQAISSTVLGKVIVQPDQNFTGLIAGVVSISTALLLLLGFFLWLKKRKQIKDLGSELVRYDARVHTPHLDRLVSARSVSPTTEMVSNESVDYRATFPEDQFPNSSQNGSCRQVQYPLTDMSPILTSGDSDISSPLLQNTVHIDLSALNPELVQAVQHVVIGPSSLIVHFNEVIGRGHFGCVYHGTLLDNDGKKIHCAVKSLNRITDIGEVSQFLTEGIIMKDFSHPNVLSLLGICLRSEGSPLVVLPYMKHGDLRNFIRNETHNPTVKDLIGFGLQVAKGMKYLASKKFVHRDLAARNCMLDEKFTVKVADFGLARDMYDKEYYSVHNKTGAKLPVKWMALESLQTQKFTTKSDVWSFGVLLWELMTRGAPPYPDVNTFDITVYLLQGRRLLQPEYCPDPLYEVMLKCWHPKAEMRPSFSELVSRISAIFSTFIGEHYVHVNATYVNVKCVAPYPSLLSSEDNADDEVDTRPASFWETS

Row | IC50 [5] [µM] | Prodrug factor c-MET = IC50 (prodrug)/IC50 (crizotinib) [5] | IC50 [6] [µM] | Prodrug factor ALK = IC50 (prodrug)/IC50 (crizotinib) [6] | Time to activation on incubation with H2O2 ([7]; incubation with H2O2) [h] | Release of free crizotinib ([7]; after 10 min) | Release of free crizotinib ([7]; after 1 h) | Prodrug still intact [8] | SMILES | IC50 [1] [µM] | IC50 [2] [µM] | IC50 [3] [µM] | IC50 [4] [µM] | Ratio of IC50 ±H2O2, RUMH [1] | Ratio of IC50 ±H2O2, H2228 [3] | Ratio of IC50 ±H2O2, H1993 [4] | Product of activation with H2O2 [7] | Product of activation with H2O2 ([7]; listed as prodrug B) | GI absorption (predicted) [9]
1 | – | – | – | – | – | – | – | – | C[C@@H](Oc1cc(-c2cnn(C3CCNCC3)c2)cnc1NCc1ccc(O)cc1)c1c(Cl)ccc(F)c1Cl [Compound C, (R)-4-(((3-(1-(2,6-Dichloro-3-fluorophenyl)ethoxy)-5-(1-(piperidin-4-yl)-1H-pyrazol-4-yl)pyridin-2-yl)amino)methyl)phenol] | 5.94 ± 1.09 | 4.03 ± 0.04 | 7.23 ± 0.28 | 9.96 ± 2.69 | – | – | – | – | – | –
2 | – | – | – | – | – | – | – | – | C[C@@H](Oc1cc(-c2cnn(C3CCNCC3)c2)cnc1N)c1c(Cl)ccc(F)c1Cl [Crizotinib, reference compound] | 6.08 ± 1.51 | 6.32 ± 0.39 | – | 3.18 ± 0.26 | – | – | – | – | – | –
3 | 0.055 | 11 | 0.472 | 22 | ≤ 1 | ~ 50% | ~ 75% | – | C[C@@H](Oc1cc(-c2cnn(C3CCNCC3)c2)cnc1NC(=O)OCc1ccc(B(O)O)cc1)c1c(Cl)ccc(F)c1Cl [Prodrug A, (R)-(4-((((3-(1-(2,6-Dichloro-3-fluorophenyl)ethoxy)-5-(1-(piperidin-4-yl)-1H-pyrazol-4-yl)pyridin-2-yl)carbamoyl)oxy)methyl)phenyl)boronic acid] | 14 ± 3.92 | 16.8 ± 1.38 | 23.1 ± 0.47 | 9.73 ± 2.63 | 1.57 | 1.62 | 1.22 | – | – | –
4 | 0.684 | 137 | 0.333 | 16 | – | – | – | 30–40% | C[C@@H](Oc1cc(-c2cnn(C3CCNCC3)c2)cnc1NCc1ccc(B(O)O)cc1)c1c(Cl)ccc(F)c1Cl [Prodrug B, (R)-(4-(((3-(1-(2,6-Dichloro-3-fluorophenyl)ethoxy)-5-(1-(piperidin-4-yl)-1H-pyrazol-4-yl)pyridin-2-yl)amino)methyl)phenyl)boronic acid] | 5.05 ± 0.44 | 8.99 ± 0.36 | 8.3 ± 0.42 | 10.2 ± 1.68 | 0.91 | 0.92 | 0.87 | formation of a hydrolyzed but stable phenol derivative, compound C | formation of compound C rather than the release of crizotinib | –
5 | – | – | – | – | – | – | – | – | CS(=O)(=O)CCNCc1ccc(-c2ccc3ncnc(Nc4ccc(OCc5cccc(F)c5)c(Cl)c4)c3c2)o1 [lapatinib] | – | – | – | – | – | – | – | – | – | low
